Measured values as given in patent US20250376461A1, “INDAZOLE DERIVATIVES FOR TREATING TRPM3-MEDIATED DISORDERS” (Katholieke Universiteit Leuven, priority 2022, published 2025).

molecular target: T1, mouse TRPM3α2 (mTRPM3) ion channel (Mus musculus, UniProt J9SQF3); assay: TRPM3 ion channel driven Ca2+ uptake, Fluo-4 AM assay, mTRPM3alpha2 overexpressing flip-in HEK293 cells stimulated with pregnenolone sulfate (50 μM); assay type: cell-based; conditions: mTRPM3 overexpressing HEK293 cells stimulated with pregnenolone sulfate (50 μM), activity ranges A, B, C
T1 construct: expressed in transfected cells; host or cells: flip-in HEK293
T1 sequence (J9SQF3 1-1709 isoform J9SQF3-12): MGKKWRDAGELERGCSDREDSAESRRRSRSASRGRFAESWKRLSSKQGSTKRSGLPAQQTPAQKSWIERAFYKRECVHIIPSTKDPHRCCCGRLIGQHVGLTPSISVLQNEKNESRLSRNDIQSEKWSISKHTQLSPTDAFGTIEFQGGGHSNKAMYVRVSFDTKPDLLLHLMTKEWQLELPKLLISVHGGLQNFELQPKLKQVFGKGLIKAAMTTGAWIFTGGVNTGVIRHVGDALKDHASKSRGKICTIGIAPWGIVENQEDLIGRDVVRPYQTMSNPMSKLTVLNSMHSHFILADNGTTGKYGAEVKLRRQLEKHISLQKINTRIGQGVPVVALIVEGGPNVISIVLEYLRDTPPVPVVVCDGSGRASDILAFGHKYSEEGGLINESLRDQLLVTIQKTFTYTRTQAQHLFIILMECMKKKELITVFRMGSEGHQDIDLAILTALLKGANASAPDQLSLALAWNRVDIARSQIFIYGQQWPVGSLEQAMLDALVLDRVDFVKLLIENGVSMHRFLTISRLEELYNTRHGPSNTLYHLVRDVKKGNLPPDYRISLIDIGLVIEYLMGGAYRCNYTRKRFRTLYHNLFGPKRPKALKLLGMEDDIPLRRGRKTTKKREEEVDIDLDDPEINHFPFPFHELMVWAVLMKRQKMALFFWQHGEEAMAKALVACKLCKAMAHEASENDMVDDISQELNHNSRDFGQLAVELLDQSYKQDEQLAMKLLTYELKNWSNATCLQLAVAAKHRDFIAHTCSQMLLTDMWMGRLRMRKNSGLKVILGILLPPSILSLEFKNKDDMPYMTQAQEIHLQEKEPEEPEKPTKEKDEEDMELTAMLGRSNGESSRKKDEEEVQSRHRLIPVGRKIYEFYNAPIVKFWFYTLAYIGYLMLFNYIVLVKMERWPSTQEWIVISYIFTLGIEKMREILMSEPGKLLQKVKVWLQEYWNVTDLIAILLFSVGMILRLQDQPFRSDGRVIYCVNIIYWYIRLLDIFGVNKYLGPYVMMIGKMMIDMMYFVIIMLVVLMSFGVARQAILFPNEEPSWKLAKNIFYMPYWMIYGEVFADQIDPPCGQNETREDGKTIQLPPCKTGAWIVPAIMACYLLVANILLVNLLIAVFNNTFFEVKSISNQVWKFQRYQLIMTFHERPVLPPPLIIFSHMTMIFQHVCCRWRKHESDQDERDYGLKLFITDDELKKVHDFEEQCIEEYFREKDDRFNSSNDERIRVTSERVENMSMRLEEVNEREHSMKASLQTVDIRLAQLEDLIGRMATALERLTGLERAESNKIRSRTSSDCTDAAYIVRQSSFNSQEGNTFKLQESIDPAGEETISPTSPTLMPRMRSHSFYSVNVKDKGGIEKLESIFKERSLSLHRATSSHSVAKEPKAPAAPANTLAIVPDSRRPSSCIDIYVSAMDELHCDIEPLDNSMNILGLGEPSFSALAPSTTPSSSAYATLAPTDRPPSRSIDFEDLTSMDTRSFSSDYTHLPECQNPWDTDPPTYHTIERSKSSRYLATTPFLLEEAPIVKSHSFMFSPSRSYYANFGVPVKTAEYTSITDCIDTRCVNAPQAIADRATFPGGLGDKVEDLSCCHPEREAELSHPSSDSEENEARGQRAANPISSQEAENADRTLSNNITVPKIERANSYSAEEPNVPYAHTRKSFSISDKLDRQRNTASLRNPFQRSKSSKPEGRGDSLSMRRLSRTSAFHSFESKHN
In short: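 Flip-in HEK293 cells overexpressing mTRPM3α2, loaded with Fluo-4 AM, added at ±2000 cells/well to plates holding compound plus 50 μM pregnenolone sulfate in Ca2+-containing Krebs buffer. Fluorescence (ex 485/em 535 nm) read immediately. Percent inhibition normalised between vehicle and positive-control inhibitor; IC50 derived.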

SMILES	IC50
Cn1nc2ccc(OCc3cccnc3C(F)(F)F)cc2c1C(=O)NC1(CO)CC1 [Cpd 022, N-[1-(hydroxymethyl)cyclopropyl]-2-methyl-5-{[2-(trifluoromethyl)pyridin-3-yl]methoxy}-2H-indazole-3-carboxamide]	1 to 20 µM
Cn1nc2ccc(OCc3ccccc3)cc2c1C(=O)NC(C)(C)CO [Cpd 023, 5-(benzyloxy)-N-(1-hydroxy-2-methylpropan-2-yl)-2-methyl-2H-indazole-3-carboxamide]	1 to 20 µM
Cc1ncsc1COc1ccc2nn(C)c(C(=O)NCC(C)(C)CO)c2c1 [Cpd 024, N-(3-hydroxy-2,2-dimethylpropyl)-2-methyl-5-[(4-methyl-1,3-thiazol-5-yl)methoxy]-2H-indazole-3-carboxamide]	1 to 20 µM
Cn1nc2ccc(OCc3ccccc3)cc2c1C(=O)NCc1cccc(O)n1 [Cpd 025, 5-(benzyloxy)-N-[(6-hydroxypyridin-2-yl)methyl]-2-methyl-2H-indazole-3-carboxamide]	< 1 µM
Cn1nc2ccc(OCc3cccnc3C(F)(F)F)cc2c1C(=O)NC(CO)C(N)=O (stereo not shown) [Cpd 026, 3-hydroxy-2-[(2-methyl-5-{[2-(trifluoromethyl)pyridin-3-yl]methoxy}-2H-indazol-3-yl)formamido]propanamide]	< 1 µM
Cn1nccc1COc1ccc2nn(C)c(C(=O)NC(CO)C(N)=O)c2c1 (stereo not shown) [Cpd 027, 3-hydroxy-2-({2-methyl-5-[(1-methyl-1H-pyrazol-5-yl)methoxy]-2H-indazol-3-yl}formamido)propanamide]	1 to 20 µM
Cn1nc2ccc(OCc3cccnc3C(F)(F)F)cc2c1C(=O)NC1(CO)CCC1 [Cpd 028, N-[1-(hydroxymethyl)cyclobutyl]-2-methyl-5-{[2-(trifluoromethyl)pyridin-3-yl]methoxy}-2H-indazole-3-carboxamide]	1 to 20 µM
Cn1nc2ccc(OCc3cccnc3C(F)(F)F)cc2c1C(=O)NC1(CO)CCOCC1 [Cpd 029, N-[4-(hydroxymethyl)oxan-4-yl]-2-methyl-5-{[2-(trifluoromethyl)pyridin-3-yl]methoxy}-2H-indazole-3-carboxamide]	1 to 20 µM
Cn1nccc1COc1ccc2nn(C)c(C(=O)NC3(C(N)=O)COC3)c2c1 [Cpd 030, N-(3-carbamoyloxetan-3-yl)-2-methyl-5-[(1-methyl-1H-pyrazol-5-yl)methoxy]-2H-indazole-3-carboxamide]	> 20 µM
Cc1ncsc1COc1ccc2nn(C)c(C(=O)NC3(C(N)=O)COC3)c2c1 [Cpd 031, N-(3-carbamoyloxetan-3-yl)-2-methyl-5-[(4-methyl-1,3-thiazol-5-yl)methoxy]-2H-indazole-3-carboxamide]	1 to 20 µM
Cc1ncsc1COc1ccc2nn(C)c(C(=O)NC3CN(C)CC3(F)F)c2c1 (stereo not shown) [Cpd 032, N-(4,4-difluoro-1-methylpyrrolidin-3-yl)-2-methyl-5-[(4-methyl-1,3-thiazol-5-yl)methoxy]-2H-indazole-3-carboxamide]	1 to 20 µM
Cn1nc2ccc(OCc3ccccc3)cc2c1C(=O)NC1(C(N)=O)CCC1 [Cpd 033, 5-(benzyloxy)-N-(1-carbamoylcyclobutyl)-2-methyl-2H-indazole-3-carboxamide]	1 to 20 µM
CN1CC(NC(=O)c2c3cc(OCc4ccccc4)ccc3nn2C)C(F)(F)C1 (stereo not shown) [Cpd 034, 5-(benzyloxy)-N-(4,4-difluoro-1-methylpyrrolidin-3-yl)-2-methyl-2H-indazole-3-carboxamide]	1 to 20 µM
Cn1nccc1COc1ccc2nn(C)c(C(=O)NCc3cccc(O)n3)c2c1 [Cpd 035, N-[(6-hydroxypyridin-2-yl)methyl]-2-methyl-5-[(1-methyl-1H-pyrazol-5-yl)methoxy]-2H-indazole-3-carboxamide]	1 to 20 µM
Cn1nc2ccc(OCc3cccnc3C(F)(F)F)cc2c1C(=O)NCc1cccc(O)n1 [Cpd 036, N-[(6-hydroxypyridin-2-yl)methyl]-2-methyl-5-{[2-(trifluoromethyl)pyridin-3-yl]methoxy}-2H-indazole-3-carboxamide]	1 to 20 µM
Cc1ncsc1COc1ccc2nn(C)c(C(=O)NC3CCN(CCO)C3=O)c2c1 (stereo not shown) [Cpd 037, N-[1-(2-hydroxyethyl)-2-oxopyrrolidin-3-yl]-2-methyl-5-[(4-methyl-1,3-thiazol-5-yl)methoxy]-2H-indazole-3-carboxamide]	> 20 µM
Cn1nc2ccc(OCc3ccccc3)cc2c1C(=O)NC1CCN(CCO)C1=O (stereo not shown) [Cpd 038, 5-(benzyloxy)-N-[1-(2-hydroxyethyl)-2-oxopyrrolidin-3-yl]-2-methyl-2H-indazole-3-carboxamide]	1 to 20 µM
Cn1nccc1COc1ccc2nn(C)c(C(=O)NC3CCN(CCO)C3=O)c2c1 (stereo not shown) [Cpd 039, N-[1-(2-hydroxyethyl)-2-oxopyrrolidin-3-yl]-2-methyl-5-[(1-methyl-1H-pyrazol-5-yl)methoxy]-2H-indazole-3-carboxamide]	> 20 µM
CN1CCC(NC(=O)c2c3cc(OCc4cccnc4C(F)(F)F)ccc3nn2C)C1 (stereo not shown) [Cpd 040, 2-methyl-N-(1-methylpyrrolidin-3-yl)-5-{[2-(trifluoromethyl)pyridin-3-yl]methoxy}-2H-indazole-3-carboxamide]	1 to 20 µM

SMILES	IC50
Cn1nc2ccc(OCc3ccccc3)cc2c1C(=O)NC1(C(N)=O)COC1 [Cpd 041, 5-(benzyloxy)-N-(3-carbamoyloxetan-3-yl)-2-methyl-2H-indazole-3-carboxamide]	1 to 20 µM
CN(C)C1(CNC(=O)c2c3cc(OCc4cccnc4C(F)(F)F)ccc3nn2C)CCC1 [Cpd 042, N-{[1-(dimethylamino)cyclobutyl]methyl}-2-methyl-5-{[2-(trifluoromethyl)pyridin-3-yl]methoxy}-2H-indazole-3-carboxamide]	1 to 20 µM
Cc1ncsc1COc1ccc2nn(C)c(C(=O)NC3(CO)CCC3)c2c1 [Cpd 043, N-[1-(hydroxymethyl)cyclobutyl]-2-methyl-5-[(4-methyl-1,3-thiazol-5-yl)methoxy]-2H-indazole-3-carboxamide]	1 to 20 µM
Cn1nccc1COc1ccc2nn(C)c(C(=O)NC3(CO)CCC3)c2c1 [Cpd 044, N-[1-(hydroxymethyl)cyclobutyl]-2-methyl-5-[(1-methyl-1H-pyrazol-5-yl)methoxy]-2H-indazole-3-carboxamide]	1 to 20 µM
Cn1nc2ccc(OCc3ccccc3)cc2c1C(=O)NCCN1CCOC1=O [Cpd 045, 5-(benzyloxy)-2-methyl-N-[2-(2-oxo-1,3-oxazolidin-3-yl)ethyl]-2H-indazole-3-carboxamide]	> 20 µM
CN(C)C1(CNC(=O)c2c3cc(OCc4ccnn4C)ccc3nn2C)CCC1 [Cpd 046, N-{[1-(dimethylamino)cyclobutyl]methyl}-2-methyl-5-[(1-methyl-1H-pyrazol-5-yl)methoxy]-2H-indazole-3-carboxamide]	1 to 20 µM
Cc1ncsc1COc1ccc2nn(C)c(C(=O)NC3(CO)CC3)c2c1 [Cpd 047, N-[1-(hydroxymethyl)cyclopropyl]-2-methyl-5-[(4-methyl-1,3-thiazol-5-yl)methoxy]-2H-indazole-3-carboxamide]	1 to 20 µM
Cc1ncsc1COc1ccc2nn(C)c(C(=O)NC3(CCO)CCC3)c2c1 [Cpd 048, N-[1-(2-hydroxyethyl)cyclobutyl]-2-methyl-5-[(4-methyl-1,3-thiazol-5-yl)methoxy]-2H-indazole-3-carboxamide]	1 to 20 µM
Cn1nccc1COc1ccc2nn(C)c(C(=O)NCC(C)(C)N3CCOCC3)c2c1 [Cpd 049, 2-methyl-5-[(1-methyl-1H-pyrazol-5-yl)methoxy]-N-[2-methyl-2-(morpholin-4-yl)propyl]-2H-indazole-3-carboxamide]	> 20 µM
Cn1nccc1COc1ccc2nn(C)c(C(=O)NC3CCN(CC(F)(F)F)C3)c2c1 (stereo not shown) [Cpd 050, 2-methyl-5-[(1-methyl-1H-pyrazol-5-yl)methoxy]-N-[1-(2,2,2-trifluoroethyl)pyrrolidin-3-yl]-2H-indazole-3-carboxamide]	1 to 20 µM
Cn1nc2ccc(OCc3ccccc3)cc2c1C(=O)NC1(CCO)CCC1 [Cpd 051, 5-(benzyloxy)-N-[1-(2-hydroxyethyl)cyclobutyl]-2-methyl-2H-indazole-3-carboxamide]	1 to 20 µM
Cc1ncsc1COc1ccc2nn(C)c(C(=O)NCCN3CCOC3=O)c2c1 [Cpd 053, 2-methyl-5-[(4-methyl-1,3-thiazol-5-yl)methoxy]-N-[2-(2-oxo-1,3-oxazolidin-3-yl)ethyl]-2H-indazole-3-carboxamide]	> 20 µM
Cn1nc2ccc(OCc3cccnc3C(F)(F)F)cc2c1C(=O)NCC1CCC(=O)N1 (stereo not shown) [Cpd 054, 2-methyl-N-[(5-oxopyrrolidin-2-yl)methyl]-5-{[2-(trifluoromethyl)pyridin-3-yl]methoxy}-2H-indazole-3-carboxamide]	1 to 20 µM
Cn1nccc1COc1ccc2nn(C)c(C(=O)NCCN3CCOC3=O)c2c1 [Cpd 055, 2-methyl-5-[(1-methyl-1H-pyrazol-5-yl)methoxy]-N-[2-(2-oxo-1,3-oxazolidin-3-yl)ethyl]-2H-indazole-3-carboxamide]	1 to 20 µM
Cc1ncsc1COc1ccc2nn(C)c(C(=O)NC3CCN(CC(F)(F)F)C3)c2c1 (stereo not shown) [Cpd 057, 2-methyl-5-[(4-methyl-1,3-thiazol-5-yl)methoxy]-N-[1-(2,2,2-trifluoroethyl)pyrrolidin-3-yl]-2H-indazole-3-carboxamide]	1 to 20 µM
Cn1nccc1COc1ccc2nn(C)c(C(=O)NC3(CO)CCOCC3)c2c1 [Cpd 058, N-[4-(hydroxymethyl)oxan-4-yl]-2-methyl-5-[(1-methyl-1H-pyrazol-5-yl)methoxy]-2H-indazole-3-carboxamide]	> 20 µM
Cn1nc2ccc(OCc3ccccc3)cc2c1C(=O)NC1CCN(CC(F)(F)F)C1 (stereo not shown) [Cpd 060, 5-(benzyloxy)-2-methyl-N-[1-(2,2,2-trifluoroethyl)pyrrolidin-3-yl]-2H-indazole-3-carboxamide]	1 to 20 µM
Cn1nccc1COc1ccc2nn(C)c(C(=O)NC3(C(N)=O)CCC3)c2c1 [Cpd 061, N-(1-carbamoylcyclobutyl)-2-methyl-5-[(1-methyl-1H-pyrazol-5-yl)methoxy]-2H-indazole-3-carboxamide]	1 to 20 µM
